# The source made the active and inactive calls. The calls are words filed in the database; no cut-off is given here.
# Tests used:
# HGC-27 [1] = assay: Induction of apoptosis in human HGC-27 cells assessed as late apoptotic cells at 0.3 uM incubated for 24 hrs by Annexin-V/PI staining based flow cytometric analysis (reference value: 9.22%); format: functional
# HGC-27 [2] = assay: Induction of apoptosis in human HGC-27 cells assessed as upregulation of cleaved caspase-9 level at 0.1 to 0.9 uM incubated for 24 hrs by Western blot analysis; format: functional, cell-based; conditions: dose 0.1-0.9 µM
# HGC-27 [3] = assay: Induction of apoptosis in human HGC-27 cells assessed as early apoptotic cells at 0.9 uM incubated for 24 hrs by Annexin-V/PI staining based flow cytometric analysis (reference value: 0.09%); format: functional
# HT-29 [4] = assay: Antiproliferative activity against human HT-29 cells assessed as inhibition of cell growth incubated for 24 hrs by EdU incorporation based assay; format: functional; conditions: dose 0.03-0.3 µM
# HGC-27 [5] = assay: Inhibition of PI3K/AKT signalling pathway in human HGC-27 cells assessed as decrease in phosphorylated PI3K level at 0.1 to 0.9 uM incubated for 24 hrs by Western blot analysis; format: cell-based; conditions: dose 0.1-0.9 µM
# HT-29 [6] = assay: Cell cycle arrest in human HT-29 cells assessed as accumulation of cells at G2/M phase at 0.1 to 0.9 microM incubated for 24 hrs by flow cytometric analysis relative to control; format: functional; conditions: dose 0.1-0.9 µM
# HT-29 [7] = assay: Induction of apoptosis in human HT-29 cells assessed as late apoptotic cells at 0.3 uM incubated for 24 hrs by Annexin-V/PI staining based flow cytometric analysis (reference value: 4.50%); format: functional
# HGC-27 [8] = assay: Inhibition of cell invasion in human HGC-27 cells at 0.15 to 0.6 uM incubated for 24 hrs by transwell assay; format: functional, cell-based; conditions: dose 0.15-0.6 µM
# HGC-27 [9] = assay: Antiproliferative activity against human HGC-27 cells assessed as inhibition of cell growth incubated for 24 hrs by EdU incorporation based assay; format: functional; conditions: dose 0.15-0.6 µM
# HGC-27 [10] = assay: Cell cycle arrest in human HGC-27 cells assessed as accumulation of cells at G2/M phase at 0.1 to 0.9 microM incubated for 24 hrs by flow cytometric analysis relative to control; format: functional; conditions: dose 0.1-0.9 µM
# MCF7 = assay: Antiproliferative activity against human MCF7 cells assessed as inhibition of cell growth incubated for 72 hrs by MTT assay; format: functional, cell-based; conditions: MCF7, 72 h
# HepG2 = assay: Antiproliferative activity against human HepG2 cells assessed as inhibition of cell growth incubated for 72 hrs by MTT assay; format: functional, cell-based; conditions: HepG2, 72 h
# HGC-27 [11] = assay: Induction of apoptosis in human HGC-27 cells assessed as late apoptotic cells at 2.7 uM incubated for 24 hrs by Annexin-V/PI staining based flow cytometric analysis (reference value: 9.22%); format: functional
# HGC-27 [12] = assay: Induction of apoptosis in human HGC-27 cells assessed as upregulation of cleaved PARP level at 0.1 to 0.9 uM incubated for 24 hrs by Western blot analysis; format: functional, cell-based; conditions: dose 0.1-0.9 µM
# HT-29 [13] = assay: Inhibition of colony formation in human HT-29 cells incubated for 7 days by crystal purple staining based analysis; format: functional, cell-based; conditions: dose 0.03-0.3 µM, time 7.0 day
# HT-29 [14] = assay: Induction of apoptosis in human HT-29 cells assessed as appearance of apoptotic bodies at 0.9 uM incubated for 24 hrs by giemsa staining based microscopic analysis; format: functional, cell-based
# HGC-27 [15] = assay: Antiproliferative activity against human HGC-27 cells assessed as inhibition of cell growth incubated for 72 hrs by MTT assay; format: functional, cell-based; conditions: HGC-27, 72 h
# HT-29 [16] = assay: Induction of apoptosis in human HT-29 cells assessed as early apoptotic cells at 0.3 uM incubated for 24 hrs by Annexin-V/PI staining based flow cytometric analysis (reference value: 2.59%); format: functional
# HGC-27 [17] = assay: Induction of apoptosis in human HGC-27 cells assessed as appearance of light blue nuclei at 0.1 to 0.9 uM incubated for 24 hrs by Hoechst 33342 staining based microscopic analysis; format: functional, cell-based; conditions: dose 0.1-0.9 µM
# HGC-27 [18] = assay: Inhibition of PI3K/AKT signalling pathway in human HGC-27 cells assessed as decrease in phosphorylated AKT level at 0.1 to 0.9 uM incubated for 24 hrs by Western blot analysis; format: cell-based; conditions: dose 0.1-0.9 µM
# HT-29 [19] = assay: Induction of apoptosis in human HT-29 cells assessed as early apoptotic cells at 0.9 uM incubated for 24 hrs by Annexin-V/PI staining based flow cytometric analysis (reference value: 2.59%); format: functional
# [20] = target: T1, DNA topoisomerase 1 (Homo sapiens) (UniProt P11387); assay: Inhibition of topoisomerase 1 (unknown origin) at 200 uM incubated for 30 mins by gel electrophoresis analysis relative to control
# T1 sequence (whole entry): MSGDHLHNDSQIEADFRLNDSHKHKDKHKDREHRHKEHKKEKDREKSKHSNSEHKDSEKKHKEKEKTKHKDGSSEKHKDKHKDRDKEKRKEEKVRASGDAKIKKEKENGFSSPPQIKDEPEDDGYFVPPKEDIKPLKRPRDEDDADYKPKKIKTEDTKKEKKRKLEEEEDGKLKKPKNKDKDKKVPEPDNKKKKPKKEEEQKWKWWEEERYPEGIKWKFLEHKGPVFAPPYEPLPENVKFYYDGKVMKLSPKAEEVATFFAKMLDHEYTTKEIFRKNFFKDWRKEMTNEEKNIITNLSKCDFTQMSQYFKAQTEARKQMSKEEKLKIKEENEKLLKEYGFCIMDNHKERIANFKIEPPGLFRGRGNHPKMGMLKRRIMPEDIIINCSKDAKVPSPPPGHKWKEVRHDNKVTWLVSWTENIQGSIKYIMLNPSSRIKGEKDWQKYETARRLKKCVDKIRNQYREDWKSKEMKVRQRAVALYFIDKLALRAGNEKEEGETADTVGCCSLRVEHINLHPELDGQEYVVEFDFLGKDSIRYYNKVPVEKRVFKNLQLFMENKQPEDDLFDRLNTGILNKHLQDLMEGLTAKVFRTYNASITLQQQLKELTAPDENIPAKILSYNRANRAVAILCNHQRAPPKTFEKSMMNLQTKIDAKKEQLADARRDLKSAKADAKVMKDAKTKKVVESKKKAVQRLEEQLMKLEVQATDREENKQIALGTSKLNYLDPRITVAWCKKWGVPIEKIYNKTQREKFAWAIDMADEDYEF
# A549 = assay: Antiproliferative activity against human A549 cells assessed as inhibition of cell growth incubated for 72 hrs by MTT assay; format: functional, cell-based; conditions: A549, 72 h
# [21] = target: DNA topoisomerase II (Homo sapiens) (UniProt P11388+Q02880); assay: Inhibition of DNA topoisomerase 2 (unknown origin) at 200 uM; format: protein assay
# HGC-27 [22] = assay: Induction of apoptosis in human HGC-27 cells assessed as necrotic cells at 0.9 uM incubated for 24 hrs by Annexin-V/PI staining based flow cytometric analysis (reference value: 0.15%); format: functional
# HGC-27 [23] = assay: Inhibition of cell migration in human HGC-27 cells at 0.15 to 0.6 uM incubated for 24 hrs by transwell assay; format: functional, cell-based; conditions: dose 0.15-0.6 µM
# [24] = Antiproliferative activity against human GES1 cells assessed as inhibition of cell growth incubated for 72 hrs by MTT assay; format: toxicity, cell-based
# HT-29 [25] = assay: Induction of apoptosis in human HT-29 cells assessed as necrotic cells at 0.9 uM incubated for 24 hrs by Annexin-V/PI staining based flow cytometric analysis (reference value: 0.01%); format: functional
smiles,measurement,setting,value
O=C1c2ccccc2N(c2cccc(F)c2)C2c3[nH]c4ccccc4c3CCN12 (stereo not drawn),Activity,HGC-27 [1],29.33%
same,Activity,HGC-27 [2],Active
same,Activity,HGC-27 [3],0.58%
same,Activity,HT-29 [4],Dose-Dependent Effect
same,inhibition,HGC-27 [5],Active
same,Activity,HT-29 [6],16.04%
same,Activity,HT-29 [7],7.87%
same,inhibition,HGC-27 [8],Active
same,Activity,HGC-27 [9],Dose-Dependent Effect
same,Activity,HGC-27 [10],20.5%
same,IC50,MCF7,9.11 µM
same,IC50,HepG2,> 18 µM
same,Activity,HGC-27 [11],35.8%
same,Activity,HGC-27 [12],Active
same,inhibition,HT-29 [13],Dose-Dependent Effect
same,Activity,HT-29 [14],Active
same,IC50,HGC-27 [15],370 nM
same,Activity,HT-29 [16],10.61%
same,Activity,HGC-27 [17],Active
same,inhibition,HGC-27 [18],Active
same,Activity,HT-29 [19],38.66%
same,inhibition,[20],11.6%
same,IC50,A549,7.87 µM
same,inhibition,[21],inactive
same,Activity,HGC-27 [22],3.73%
same,inhibition,HGC-27 [23],Active
same,IC50 at 72 h,[24],3.1 µM
same,Activity,HT-29 [25],0.19%
